# From the OligoGym collection
# HELM strings list units from the 5' end as sugar, base in round brackets, then linkage (d deoxyribose, r ribose, m 2'-O-methyl, p phosphodiester). Strings are as the collection lists them, not checked against the first reports. ss, as = sense and antisense strand; [lna] = locked nucleic acid (LNA); [hna] = hexitol nucleic acid; [s4r] = 4'-thioribose; [fl2r] = 2'-fluoro
# Conditions: siRNA
# Also: test system not given here.
row,Substance,target mRNA knockdown [%]
1,RNA1{[fl2r](U)p.r(A)p.r(A)p.r(C)p.r(C)p.r(C)p.r(C)p.r(A)p.r(A)p.r(G)p.r(A)p.r(A)p.r(C)p.r(G)p.r(G)p.r(G)p.r(C)p.r(U)p.r(U)p.r(T)p.r(T)}|RNA2{r(A)p.r(A)p.r(G)p.r(C)p.r(C)p.r(C)p.r(G)p.r(U)p.r(U)p.r(C)p.r(U)p.r(U)p.r(G)p.r(G)p.r(G)p.r(G)p.r(U)p.[fl2r](U)p.r(A)p.r(T)p.r(T)}$$$RNA1{StrandType:ss}|RNA2{StrandType:as}$,73
2,RNA1{[lna](G)p.r(G)p.r(A)p.r(U)p.r(G)p.r(A)p.r(G)p.r(G)p.r(A)p.r(A)p.r(G)p.r(G)p.r(C)p.r(A)p.r(A)p.r(U)p.r(U)p.r(U)p.r(A)p.[lna](T)p.[lna](T)}|RNA2{r(U)p.r(A)p.r(A)p.r(A)p.r(U)p.r(U)p.r(G)p.r(C)p.r(C)p.r(U)p.r(U)p.r(C)p.r(C)p.r(U)p.r(C)p.r(A)p.r(U)p.r(C)p.r(C)p.[lna](T)p.[lna](T)}$$$RNA1{StrandType:ss}|RNA2{StrandType:as}$,50
3,RNA1{r(G)p.r(A)p.r(C)p.r(G)p.r(U)p.r(A)p.r(A)p.r(A)p.r(C)p.r(G)p.r(G)p.r(C)p.r(C)p.r(A)p.r(C)p.r(A)p.r(A)p.r(G)p.r(U)p.r(U)p.r(C)}|RNA2{r(A)p.r(C)p.[lna](T)p.r(U)p.r(G)p.[lna](T)p.r(G)p.r(G)p.r(C)p.r(C)p.r(G)p.r(U)p.r(U)p.[lna](T)p.r(A)p.r(C)p.r(G)p.[lna](T)p.r(C)p.[lna](G)p.[lna](C)}$$$RNA1{StrandType:ss}|RNA2{StrandType:as}$,0
4,RNA1{r(G)p.r(U)p.r(U)p.[fl2r](C)p.r(A)p.r(C)p.r(G)p.r(U)p.r(C)p.r(C)p.[fl2r](U)p.r(A)p.r(C)p.r(C)p.r(C)p.r(C)p.r(U)p.r(U)p.r(U)p.r(T)p.r(T)}|RNA2{r(A)p.r(A)p.r(A)p.r(G)p.r(G)p.r(G)p.r(G)p.[fl2r](U)p.r(A)p.r(G)p.r(G)p.r(A)p.r(C)p.r(G)p.[fl2r](U)p.r(G)p.r(A)p.r(A)p.r(C)p.r(T)p.r(T)}$$$RNA1{StrandType:ss}|RNA2{StrandType:as}$,65
5,RNA1{r(U)p.r(C)p.r(C)p.r(U)p.r(A)p.r(C)p.r(A)p.r(G)p.r(C)p.r(A)p.r(C)p.r(A)p.r(A)p.r(C)p.r(A)p.r(A)p.r(A)p.r(U)p.r(G)p.d(U)p.d(G)}|RNA2{r(C)p.r(A)p.r(U)p.r(U)p.r(U)p.r(G)p.r(U)p.r(U)p.r(G)p.r(U)p.r(G)p.r(C)p.r(U)p.r(G)p.r(U)p.r(A)p.r(G)p.r(G)p.r(A)p.d(T)p.d(T)}$$$RNA1{StrandType:ss}|RNA2{StrandType:as}$,54
6,RNA1{r(G)p.[hna](A)p.r(C)p.r(G)p.r(U)p.r(A)p.r(A)p.[hna](A)p.r(C)p.r(G)p.r(G)p.r(C)p.r(C)p.[hna](A)p.r(C)p.r(A)p.[hna](A)p.r(G)p.r(U)p.r(U)p.r(C)}|RNA2{[fl2r](A)p.m(C)p.[fl2r](U)p.m(U)p.[fl2r](G)p.m(U)p.[fl2r](G)p.m(G)p.[fl2r](C)p.m(C)p.[fl2r](G)p.m(U)p.[fl2r](U)p.m(U)p.[fl2r](A)p.m(C)p.[fl2r](G)p.m(U)p.[fl2r](C)p.m(G)p.[fl2r](C)}$$$RNA1{StrandType:ss}|RNA2{StrandType:as}$,7.8
7,RNA1{r(C)p.r(G)p.r(G)p.r(A)p.r(U)p.r(C)p.m(U)p.r(A)p.r(C)p.r(A)p.r(C)p.r(C)p.r(U)p.r(U)p.r(C)p.m(A)p.r(A)p.r(G)p.r(A)p.r(T)p.r(T)}|RNA2{r(U)p.r(C)p.r(U)p.m(U)p.r(G)p.r(A)p.r(A)p.r(G)p.r(G)p.m(U)p.r(G)p.m(U)p.r(A)p.r(G)p.r(A)p.r(U)p.r(C)p.r(C)p.r(G)p.r(T)p.r(T)}$$$RNA1{StrandType:ss}|RNA2{StrandType:as}$,42
8,RNA1{r(U)p.r(C)p.r(C)p.r(U)p.r(C)p.r(G)p.r(U)p.r(C)p.r(G)p.r(U)p.r(C)p.r(U)p.r(G)p.r(U)p.r(U)p.r(C)p.m(U)p.r(A)p.r(A)p.r(T)p.r(T)}|RNA2{r(U)p.m(U)p.r(A)p.r(G)p.r(A)p.r(A)p.r(C)p.r(A)p.r(G)p.r(A)p.r(C)p.r(G)p.r(A)p.r(C)p.r(G)p.r(A)p.r(G)p.r(G)p.r(A)p.r(T)p.r(T)}$$$RNA1{StrandType:ss}|RNA2{StrandType:as}$,84
9,RNA1{[fl2r](C)p.r(U)p.[fl2r](G)p.r(A)p.[fl2r](C)p.r(C)p.[fl2r](G)p.r(G)p.[fl2r](A)p.r(A)p.[fl2r](G)p.r(C)p.[fl2r](G)p.r(C)p.[fl2r](U)p.r(U)p.[fl2r](A)p.r(A)p.[fl2r](A)p.r(T)p.r(T)}|RNA2{r(U)p.r(U)p.r(U)p.[fl2r](A)p.[fl2r](A)p.r(G)p.r(C)p.r(G)p.r(C)p.r(U)p.r(U)p.r(C)p.r(C)p.r(G)p.r(G)p.r(U)p.r(C)p.[fl2r](A)p.r(G)p.r(T)p.r(T)}$$$RNA1{StrandType:ss}|RNA2{StrandType:as}$,59
10,RNA1{r(U)p.r(C)p.r(C)p.r(C)p.r(U)p.r(U)p.r(C)p.r(C)p.r(A)p.r(C)p.r(C)p.r(G)p.r(C)p.r(C)p.r(A)p.m(U)p.r(A)p.r(U)p.r(U)p.r(T)p.r(T)}|RNA2{r(A)p.r(A)p.m(U)p.r(A)p.r(U)p.r(G)p.r(G)p.r(C)p.r(G)p.r(G)p.r(U)p.r(G)p.r(G)p.r(A)p.r(A)p.r(G)p.r(G)p.r(G)p.r(A)p.r(T)p.r(T)}$$$RNA1{StrandType:ss}|RNA2{StrandType:as}$,49
11,RNA1{[s4r](C)p.[s4r](G)p.[s4r](U)p.[s4r](A)p.[s4r](C)p.[s4r](G)p.[s4r](C)p.[s4r](G)p.[s4r](G)p.[s4r](A)p.[s4r](A)p.[s4r](U)p.[s4r](A)p.[s4r](C)p.[s4r](U)p.[s4r](U)p.[s4r](C)p.[s4r](G)p.[s4r](A)p.r(T)p.r(T)}|RNA2{r(U)p.r(C)p.r(G)p.r(A)p.r(A)p.r(G)p.r(U)p.r(A)p.r(U)p.r(U)p.r(C)p.r(C)p.r(G)p.r(C)p.r(G)p.r(U)p.r(A)p.r(C)p.r(G)p.r(T)p.r(T)}$$$RNA1{StrandType:ss}|RNA2{StrandType:as}$,60.3
12,RNA1{r(C)p.r(C)p.r(G)p.r(A)p.r(A)p.r(G)p.r(A)p.r(C)p.r(G)p.r(A)p.r(A)p.r(G)p.r(C)p.m(U)p.r(A)p.r(U)p.r(G)p.r(A)p.r(A)p.r(T)p.r(T)}|RNA2{r(U)p.r(U)p.m(C)p.r(A)p.r(U)p.r(A)p.r(G)p.r(C)p.r(U)p.r(U)p.r(C)p.r(G)p.r(U)p.r(C)p.r(U)p.r(U)p.r(C)p.r(G)p.r(G)p.r(T)p.r(T)}$$$RNA1{StrandType:ss}|RNA2{StrandType:as}$,71
13,RNA1{r(G)p.r(A)p.r(C)p.r(A)p.r(A)p.r(G)p.r(G)p.r(G)p.r(A)p.r(A)p.r(G)p.r(G)p.r(U)p.m(U)p.r(A)p.r(G)p.r(C)p.r(C)p.r(U)p.r(T)p.r(T)}|RNA2{r(A)p.r(G)p.r(G)p.r(C)p.m(U)p.r(A)p.r(A)p.r(C)p.r(C)p.r(U)p.r(U)p.r(C)p.r(C)p.r(C)p.r(U)p.r(U)p.r(G)p.r(U)p.r(C)p.r(T)p.r(T)}$$$RNA1{StrandType:ss}|RNA2{StrandType:as}$,72
14,RNA1{r(A)p.r(G)p.r(A)p.r(G)p.r(A)p.r(G)p.r(G)p.[fl2r](U)p.r(G)p.r(G)p.r(A)p.r(G)p.r(G)p.[fl2r](U)p.r(A)p.r(U)p.r(C)p.[fl2r](U)p.r(C)p.r(T)p.r(T)}|RNA2{r(G)p.r(A)p.r(G)p.r(A)p.[fl2r](U)p.r(A)p.r(C)p.r(C)p.r(U)p.r(C)p.[fl2r](C)p.[fl2r](A)p.r(C)p.r(C)p.r(U)p.r(C)p.r(U)p.r(C)p.r(U)p.r(T)p.r(T)}$$$RNA1{StrandType:ss}|RNA2{StrandType:as}$,85
15,RNA1{r(A)p.r(G)p.r(C)p.r(C)p.[fl2r](C)p.r(A)p.r(G)p.r(A)p.[fl2r](U)p.r(A)p.r(G)p.r(C)p.r(U)p.r(C)p.r(U)p.r(U)p.[fl2r](C)p.r(A)p.r(G)p.r(T)p.r(T)}|RNA2{r(C)p.[fl2r](U)p.r(G)p.r(A)p.r(A)p.r(G)p.r(A)p.r(G)p.r(C)p.[fl2r](U)p.r(A)p.r(U)p.r(C)p.[fl2r](U)p.r(G)p.r(G)p.r(G)p.r(C)p.r(U)p.r(T)p.r(T)}$$$RNA1{StrandType:ss}|RNA2{StrandType:as}$,61
16,RNA1{r(U)p.r(G)p.r(A)p.r(G)p.r(A)p.r(G)p.r(A)p.r(A)p.r(A)p.r(G)p.r(C)p.r(A)p.r(C)p.r(A)p.r(G)p.r(A)p.r(A)p.r(A)p.r(A)p.r(T)p.r(T)}|RNA2{[lna](T)p.r(U)p.r(U)p.r(U)p.r(C)p.r(U)p.r(G)p.r(U)p.r(G)p.r(C)p.r(U)p.r(U)p.r(U)p.r(C)p.r(U)p.r(C)p.r(U)p.r(C)p.r(A)p.[lna](T)p.[lna](T)}$$$RNA1{StrandType:ss}|RNA2{StrandType:as}$,45
17,RNA1{r(A)p.r(U)p.r(C)p.r(G)p.r(C)p.[fl2r](U)p.r(G)p.r(C)p.r(U)p.r(C)p.r(C)p.r(U)p.r(C)p.r(C)p.r(U)p.r(C)p.r(C)p.r(U)p.r(C)p.r(T)p.r(T)}|RNA2{r(G)p.r(A)p.r(G)p.r(G)p.r(A)p.r(G)p.r(G)p.r(A)p.r(G)p.r(G)p.r(A)p.r(G)p.[fl2r](C)p.r(A)p.r(G)p.r(C)p.r(G)p.r(A)p.r(U)p.r(T)p.r(T)}$$$RNA1{StrandType:ss}|RNA2{StrandType:as}$,71
18,RNA1{r(G)p.r(A)p.r(C)p.r(G)p.[hna](U)p.r(A)p.r(A)p.[hna](A)p.r(C)p.r(G)p.[hna](G)p.r(C)p.r(C)p.[hna](A)p.r(C)p.r(A)p.r(A)p.r(G)p.r(U)p.[hna](U)p.d(T)}|RNA2{r(A)p.r(C)p.r(U)p.r(U)p.r(G)p.r(U)p.r(G)p.r(G)p.r(C)p.r(C)p.r(G)p.r(U)p.r(U)p.r(U)p.r(A)p.r(C)p.r(G)p.[hna](U)p.[hna](C)p.[hna](G)p.d(T)}$$$RNA1{StrandType:ss}|RNA2{StrandType:as}$,48.7
19,RNA1{m(C)p.r(A)p.r(G)p.r(A)p.r(G)p.m(C)p.r(A)p.r(A)p.m(U)p.m(U)p.r(G)p.m(U)p.m(U)p.m(U)p.r(A)p.m(C)p.m(C)p.m(U)p.r(A)p.r(T)p.r(T)}|RNA2{m(U)p.r(A)p.r(G)p.r(G)p.m(U)p.r(A)p.r(A)p.r(A)p.m(C)p.r(A)p.r(A)p.m(U)p.m(U)p.r(G)p.m(C)p.m(U)p.m(C)p.r(U)p.r(G)p.r(T)p.r(T)}$$$RNA1{StrandType:ss}|RNA2{StrandType:as}$,75
